Measurements taken from patent publication US20230354703A1, “ORGANIC COMPOUND AND LIGHT-EMITTING DEVICE” (SEMICONDUCTOR ENERGY LABORATORY CO., LTD., priority 2022, published 2023).

Tests used:
[1] = water-solubility examined by calculation: polarization term δp of the solubility parameter (classical molecular dynamics, Desmond/OPLS2005); details: from the difference between the calculated δp and the δp of water (16.0); larger difference = lower solubility
Protocol: Then, the water-solubility of 2,9hpp2Phen was examined by calculation and the results are shown.
Desmond was used as software for the classical molecular dynamics calculation, and OPLS2005 was used for the force field. The calculation was performed using a high performance computer (Apollo 6500 manufactured by Hewlett Packard Enterprise Development).
A standard cell containing approximately 32 molecules is used a calculation model. […] After that, the structures are moved and rotated at random to move the molecules by Monte Carlo simulated annealing using OPLS2005 for the force field. Furthermore, the molecules are moved toward the center of the standard cell such that the density thereof is maximized; thus, the initial arrangement is obtained.
As a basis function, 6-31G** was used, and as a functional, B3LYP-D3 was used. […]
The aforementioned initial arrangement is subjected to Brownian motion simulation and then defined in an NVT ensemble; subsequently, calculation in an NPT ensemble is performed for an enough relaxation time (30 ns) under the conditions of 1 atm and 300 K with respect to time steps that reproduce molecular vibration (2 fs), so that an amorphous solid is calculated. […]
The actually measured value δp corresponding to the polarization term for the water-solubility parameter is disclosed as 16.0 in Japanese Published Patent Application No. 2017-173056, for example. […]

[2] = statement in words, background/description; cited from earlier work

Row | solubility in water compared with hpp2Py [1] | Structure (SMILES) | solubility in water [2]
1 | less soluble in water than hpp2Py | c1cc2ccc3ccc(N4CCCN5CCCN=C54)nc3c2nc1N1CCCN2CCCN=C21 [2,9hpp2Phen, 2,9-bis(1,3,4,6,7,8-hexahydro-2H-pyrimido[1,2-a]pyrimidin-1-yl)-1,10-phenanthroline] | 
2 | less soluble in water than hpp2Py | c1cc(N2CCCN3CCCN=C32)c2ccc3c(N4CCCN5CCCN=C54)ccnc3c2n1 [4,7hpp2Phen, 4,7-bis(1,3,4,6,7,8-hexahydro-2H-pyrimido[1,2-a]pyrimidin-1-yl)-1,10-phenanthroline] | 
3 |  | c1cc(N2CCCN3CCCN=C32)nc(N2CCCN3CCCN=C32)c1 [hpp2Py, 1,1′-pyridine-2,6-diyl-bis(1,3,4,6,7,8-hexahydro-2H-pyrimido[1,2-a]pyrimidine)] | highly soluble in water
